Measured values reported in patent US11078127B2, “Organically chelated mineral compositions and methods thereof” (Ralco Nutrition, Inc., priority 2009, dated 2021).

What was measured:
[1] = test system: grass; assay: Growth of grass with cobalt lactate applied in the soil or sprayed (Example 1, Table 1); type: in vivo
Description: In Table 1, the growth of grass when cobalt lactate was applied either in the soil (before seeding) or sprayed directly onto the grass once growing is shown for the various levels of cobalt (0, 1, 10, 100 and 1000 ppm) that was applied. Following growth 2, cuttings were made then the total weight of grass was shown for the various treatments. […] All work was done with a fully complete soil with respect to nitrogen, phosphorus and potash (Miracle Gro Soil), so that the only difference in the greenhouse flats was the applied cobalt level and the manner in which it was applied.

[2] = test system: Fast & Fine Premium Grass Seed; assay: Greenhouse flats, plant growth: Fast & Fine Grass seed, Flats 17-24 (Table 4); type: in vivo, Perennial Ryegrass, Creeping Red Fescue, Kentucky Bluegrass; conditions: 1 ppm applied to the soil; second year
Protocol: (§1) Sixty-four sample flats were analyzed. Empty flats were filled with about 0.25 cubic feet of Miracle Gro Soil per flat (a complete soil with enough macro-nutrients, nitrogen, phosphorus and potash to feed the plants for 3-4 months). The seeds were planted and then the seeded soil treated. Flats were watered daily. Progress was documented weekly. This number of flats resulted from running a number of positive controls and several levels of the chelated cobalt lactate per plant selection or choice.
(§2) The makeup of 64 flats was 8 sections times 8 flats per section. The first 8 flats were planted with a mixture of clovers. Flats 9-16 were also planted with the clover mixture at 5.2 grams seed/flat versus 2.6 grams seed/flat in 1-8. Flats 17-24 were planted with Fast & Fine Seed at 2.6 grams/flat, equivalent to the seeding rate from 2008. Fast & Fine Premium Grass Seed is a commercial mixture of Indy Perennial Ryegrass, Silver Dollar Perennial Ryegrass, Boreal Creeping Red Fescue, Kelly Kentucky Bluegrass and Clearwater Kentucky Bluegrass. Flats 25-32 were planted with a mixture including green globe turnips, dwarf Essex forage rapeseed, Rangi forage and giant rapeseed. Flats 33-40 were planted with a mixture of seeds including hybrid sunflower, grain sorghum, Proso millet and buck-wheat, at 5.2 grams/flat. […]

[3] = test system: Food Plot Clover Mix; assay: Greenhouse flats, plant growth (sprouts, harvest weight, % of control): Food Plot Clover Mix, Flats 1-16 (Tables 2, 3); type: in vivo, mixture of clovers; conditions: Flat 13, Clover Mix 5.2 g seed/flat
Protocol: as §1, §2

[4] = test system: ruminal microorganisms; assay: Effect of cobalt on methane, pH, ammonia-N, and digestibility in continuous cultures of ruminal microorganisms (Table 10); type: cell-based; conditions: for IVDMTD (in vitro dry matter true digestibility), %: 24 h incubation; for Culture pH, Post-feeding / Methane, nmol/ml, Post-feeding: average of samples at 1, 2, 4 and 6 h after AM feeding; for Culture pH, Pre-feeding / Methane, nmol/ml, Pre-feeding: samples taken at 0 hours
Protocol: Ammonia-N concentrations were not affected (P>0.10) by dietary treatments. […] There was a source x level interaction (P<0.001) for neutral detergent fiber (NDF) digestibility (Table 6). […] Earlier studies reported no effect on DM and NDF digestibility when Co was added at the 5.0 or 10.0 ppm levels.

[5] = Cobalt Medium DI H2O (spray), Target Cobalt Level 1 ppm
[6] = Cobalt Medium DI H2O (spray), Target Cobalt Level 10 ppm
[7] = Cobalt Medium DI H2O (spray), Target Cobalt Level 100 ppm
[8] = Cobalt Medium DI H2O (spray), Target Cobalt Level 1000 ppm
[9] = Cobalt Medium Soil, Target Cobalt Level 1 ppm
[10] = Cobalt Medium Soil, Target Cobalt Level 10 ppm
[11] = Cobalt Medium Soil, Target Cobalt Level 100 ppm
[12] = Cobalt Medium Soil, Target Cobalt Level 1000 ppm

Question: How did the “Grass Cuttings Weight (gms, 1st)” value [1, 5] turn out when `CC(O)C(=O)[O-].CC(O)C(=O)[O-].[Co+2]` (stereo not shown) [cobalt lactate] was run?
Answer: 15.7 gms

Question: And the “Grass Cuttings Weight (gms, 2nd)” value [1, 5]?
Answer: 13.9 gms

Question: What about the “Sum Grass Cuttings Weight (gms, 1st + 2nd)” value (“Sum Grass Cuttings Weight” below) [1, 5] of the same compound?
Answer: 29.6 gms

Question: And the “Grass Cuttings Weight (gms, 1st)” value [1, 6]?
Answer: 17.76 gms

Question: What about the “Grass Cuttings Weight (gms, 2nd)” value [1, 6] of the same compound?
Answer: 14.37 gms

Question: And the “Sum Grass Cuttings Weight” value [1, 6]?
Answer: 32.13 gms

Question: And the “Grass Cuttings Weight (gms, 1st)” value [1, 7]?
Answer: 18.56 gms

Question: What about the “Grass Cuttings Weight (gms, 2nd)” value [1, 7] of the same compound?
Answer: 26.57 gms

Question: And the “Sum Grass Cuttings Weight” value [1, 7]?
Answer: 45.13 gms

Question: And the “Grass Cuttings Weight (gms, 1st)” value [1, 8]?
Answer: 24.03 gms

Question: And the “Grass Cuttings Weight (gms, 2nd)” value [1, 8]?
Answer: 15.44 gms

Question: What about the “Sum Grass Cuttings Weight” value [1, 8] of the same compound?
Answer: 39.47 gms

Question: What about the “Grass Cuttings Weight (gms, 1st)” value [1, 9] of the same compound?
Answer: 31.06 gms

Question: And the “Grass Cuttings Weight (gms, 2nd)” value [1, 9]?
Answer: 22.73 gms

Question: And the “Sum Grass Cuttings Weight” value [1, 9]?
Answer: 53.79 gms

Question: And the “Grass Cuttings Weight (gms, 1st)” value [1, 10]?
Answer: 22.8 gms

Question: What about the “Grass Cuttings Weight (gms, 2nd)” value [1, 10] of the same compound?
Answer: 31.41 gms

Question: What about the “Sum Grass Cuttings Weight” value [1, 10] of the same compound?
Answer: 54.21 gms

Question: And the “Grass Cuttings Weight (gms, 1st)” value [1, 11]?
Answer: 16.33 gms

Question: And the “Grass Cuttings Weight (gms, 2nd)” value [1, 11]?
Answer: 10.12 gms

Question: What about the “Sum Grass Cuttings Weight” value [1, 11] of the same compound?
Answer: 26.45 gms

Question: And the “Grass Cuttings Weight (gms, 1st)” value [1, 12]?
Answer: 5.15 gms

Question: And the “Grass Cuttings Weight (gms, 2nd)” value [1, 12]?
Answer: 1.81 gms

Question: And the “Sum Grass Cuttings Weight” value [1, 12]?
Answer: 6.96 gms

Question: And the Growth of grass ([1]; applied in the soil at 1 or 10 ppm or applied by spray at 100 ppm)?
Answer: roughly doubled

Question: What about the Grass growth [2] of the same compound?
Answer: double the grass growth

Question: And the “Growth ahead of the positive control (Delt Ag)” value [3]?
Answer: 13%

Question: For `O=C([O-])[O-].[Co+2]` [Cobalt Carbonate, cobalt carbonate], which “Ammonia-N” value ([4]; 0.2 ppm) is on record?
Answer: 10.79 mg/dL

Question: And the “NDF Digestibility, %” value ([4]; 0.2 ppm)?
Answer: 23.16%

Question: And the “IVDMTD (in vitro dry matter true digestibility), %” value ([4]; 0.2 ppm)?
Answer: 59.35%

Question: And the “Culture pH, Post-feeding” value ([4]; 0.2 ppm)?
Answer: 5.56

Question: And the “Methane, nmol/ml, Post-feeding” value ([4]; 0.2 ppm)?
Answer: 403.14 nmol/mL

Question: And the “Culture pH, Pre-feeding” value ([4]; 0.2 ppm)?
Answer: 5.81

Question: What about the “Methane, nmol/ml, Pre-feeding” value ([4]; 0.2 ppm) of the same compound?
Answer: 363.91 nmol/mL

Question: And the “Ammonia-N” value ([4]; 1.0 ppm)?
Answer: 10.88 mg/dL

Question: And the “NDF Digestibility, %” value ([4]; 1.0 ppm)?
Answer: 17.09%

Question: And the “Effect on NDF digestibility” value ([4]; 1.0 ppm level)?
Answer: negative effect

Question: And the “IVDMTD (in vitro dry matter true digestibility), %” value ([4]; 1.0 ppm)?
Answer: 59.17%

Question: And the “Culture pH, Post-feeding” value ([4]; 1.0 ppm)?
Answer: 5.55

Question: And the “Methane, nmol/ml, Post-feeding” value ([4]; 1.0 ppm)?
Answer: 515.35 nmol/mL

Question: And the “Culture pH, Pre-feeding” value ([4]; 1.0 ppm)?
Answer: 5.88

Question: What about the “Methane, nmol/ml, Pre-feeding” value ([4]; 1.0 ppm) of the same compound?
Answer: 347.82 nmol/mL

Question: And the “Effect on methane concentration” value ([4]; continuous cultures, P>0.10 for no effect)?
Answer: significant negative impact
